{"source": "patent US20230293519A1", "about": "“INTEGRIN INHIBITORS AND USES THEREOF IN COMBINATION WITH OTHER AGENTS” (Pliant Therapeutics, Inc., priority 2021, published 2023)", "key": {"[1]": {"tested_on": "bleomycin-treated mice (C57BL/6)", "assay": "Murine bleomycin model: collagen deposition", "format": "in vivo, mouse", "experimental": "Mice (C57BL/6) were divided into healthy (n=15), vehicle-treated (n=15), and test article-treated (n=15 per dose) groups. Mice in the vehicle and test article-treated groups were administered 3 U/kg of bleomycin (Teva Pharmaceuticals; North Wales, PA) via oropharyngeal aspiration while under anesthesia on day 0. Healthy animals were administered water in a similar fashion. Starting on day 7, mice in the control group were administered PBS vehicle, 130 uL, by oral gavage, BID for 14 days. Also starting on day 7, mice in the test group were administered compound 5 in PBS by oral gavage, BID for 14 days, at relative dosages of 1x, 2.5x and 5x. […] From day 14 through day 21, 9 of the 15 mice were administered ^2H2O for labeling. All mice were sacrificed on day 21 and tissues were collected. Samples were prepared for analysis either directly from lung tissue, or by bronchoalveolar lavage, which washes out the bronchiolar and alveolar space with saline to produce a bronchoalveolar lavage fluid (BALF) in which 80-90% of cells are alveolar macrophages.\nFIG. 4C is a graph showing that compared to the healthy mice, lung tissue in the vehicle-treated mice experienced a substantial increase in SMAD3 phosphorylation, which is a measure of TGF-β signaling-related kinase activity. […] FIG. 4D is a graph showing that compared to the healthy mice, lung tissue in the vehicle-treated mice experienced a substantial accumulation of new collagen as evidenced by the percentage of lung collagen containing ^2H-labeled hydroxyproline.\nFIGS. 4F, 4G, and 4H show high resolution second harmonic generation images of fibrillar collagen (collagen type I and III) taken from formalin-fixed paraffin embedded lung tissue sections from a healthy mouse lung (4F), a vehicle-treated mouse lung (4G) and a test-article treated mouse lung (4H; 500 mg/kg BID). Color scale is indicative of collagen fiber density (red = most dense; blue = least dense).\nFIG. 4I is a graph showing the percent total collagen area in the second harmonic generation mouse lung images. […]"}, "lung Col1a1 expression [2]": {"tested_on": "lung Col1a1 expression", "assay": "Precision cut lung slices of mice under chronic bleomycin exposure (single vs dual integrin inhibition)", "format": "cell-based, mouse", "conditions": "slices cultured 7 days", "experimental": "Mice (C57BL/6) were administered 3 U/kg of bleomycin (Teva Pharmaceuticals; North Wales, PA) on Day 0 and 1 U/kg of bleomycin on days 14, 28, 42 and 56 via oropharyngeal aspiration while under anesthesia. At day 70, 14 days after the final bleomycin insult, precision cut lung slices were obtained. Following euthanization, 2% low gelling temp agarose was injected into the mouse lungs via the trachea. […] The lobes were then subjected to precision slicing to obtain samples for culture using a microtome (Compresstome VF-300-0Z, Precisionary; Greenville, NC). Individual slices were distributed in a multiwell culture plate and cultured for 7 days under control (DMSO) and test compound conditions. […]\nDuring the culture period, slices in the control group were treated with DMSO and slices in the test group were treated with a DMSO solution of one of: the selective antibody αvβ6 inhibitor 3G9; the αvβ1-selective small molecule inhibitor; a combination of the selective antibody αvβ6 inhibitor 3G9 and the αvβ1-selective small molecule inhibitor; compound 5; and the small molecule ALK5 inhibitor. The selective αvβ1 and αvβ6 integrin inhibitors were analyzed at ≥ their respective IC90 concentrations for inhibition of TGF-beta activation. […] The small molecule ALK5 inhibitor was analyzed at 10x its reported IC50 value."}, "lung Col1a1 expression [3]": {"tested_on": "lung Col1a1 expression", "assay": "Precision cut lung slices from human IPF explants, 3 days", "format": "cell-based", "conditions": "3G9 ≥400 ng/mL, compound 5 179 nM, ALK5 inhibitor 1 µM", "text": "Explanted lung tissue was obtained from human IPF subjects and inflated with agarose as described in the preceding examples. Biopsy cores were obtained from the agarose-inflated lung tissue. The biopsy cores were subjected to precision slicing to obtain several hundred µm thick. Individual slices were distributed in a multiwell culture plate and cultured for 3 days under control (DMSO) and test compound conditions. The viability of the slices over the course of culturing was confirmed by WST-1 assay of mitochondrial activity."}, "αvβ6": {"target": "αvβ6 (Homo sapiens (Human), UniProt P06756+P18564)", "sequence (P06756 31-889)": "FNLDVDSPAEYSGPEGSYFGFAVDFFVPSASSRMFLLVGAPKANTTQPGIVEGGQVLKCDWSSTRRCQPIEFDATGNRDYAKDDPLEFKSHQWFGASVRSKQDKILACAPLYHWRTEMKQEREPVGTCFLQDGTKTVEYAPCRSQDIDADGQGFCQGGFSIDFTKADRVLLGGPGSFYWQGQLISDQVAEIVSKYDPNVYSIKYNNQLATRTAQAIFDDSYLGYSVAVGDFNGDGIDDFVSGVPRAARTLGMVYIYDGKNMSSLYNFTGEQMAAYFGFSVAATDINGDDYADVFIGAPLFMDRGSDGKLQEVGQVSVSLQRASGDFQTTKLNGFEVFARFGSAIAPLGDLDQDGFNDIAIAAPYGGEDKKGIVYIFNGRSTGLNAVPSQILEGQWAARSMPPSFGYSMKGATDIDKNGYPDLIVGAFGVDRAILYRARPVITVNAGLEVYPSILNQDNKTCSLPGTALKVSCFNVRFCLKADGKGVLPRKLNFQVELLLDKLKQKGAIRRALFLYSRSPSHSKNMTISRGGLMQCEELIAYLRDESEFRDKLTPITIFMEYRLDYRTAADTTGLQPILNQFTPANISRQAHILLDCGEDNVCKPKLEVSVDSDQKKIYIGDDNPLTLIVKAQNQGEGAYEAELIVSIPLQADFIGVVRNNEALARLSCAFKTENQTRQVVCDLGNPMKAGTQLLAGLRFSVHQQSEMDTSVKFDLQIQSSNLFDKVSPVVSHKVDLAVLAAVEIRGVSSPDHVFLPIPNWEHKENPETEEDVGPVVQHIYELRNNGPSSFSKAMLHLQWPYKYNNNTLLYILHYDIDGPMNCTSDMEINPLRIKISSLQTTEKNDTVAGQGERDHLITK", "sequence (P06756 890-1048 partner)": "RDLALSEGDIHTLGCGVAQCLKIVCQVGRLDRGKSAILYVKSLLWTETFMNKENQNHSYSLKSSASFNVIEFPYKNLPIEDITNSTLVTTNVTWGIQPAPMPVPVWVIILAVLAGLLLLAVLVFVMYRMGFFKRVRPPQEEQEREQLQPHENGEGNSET", "sequence (P18564 22-788)": "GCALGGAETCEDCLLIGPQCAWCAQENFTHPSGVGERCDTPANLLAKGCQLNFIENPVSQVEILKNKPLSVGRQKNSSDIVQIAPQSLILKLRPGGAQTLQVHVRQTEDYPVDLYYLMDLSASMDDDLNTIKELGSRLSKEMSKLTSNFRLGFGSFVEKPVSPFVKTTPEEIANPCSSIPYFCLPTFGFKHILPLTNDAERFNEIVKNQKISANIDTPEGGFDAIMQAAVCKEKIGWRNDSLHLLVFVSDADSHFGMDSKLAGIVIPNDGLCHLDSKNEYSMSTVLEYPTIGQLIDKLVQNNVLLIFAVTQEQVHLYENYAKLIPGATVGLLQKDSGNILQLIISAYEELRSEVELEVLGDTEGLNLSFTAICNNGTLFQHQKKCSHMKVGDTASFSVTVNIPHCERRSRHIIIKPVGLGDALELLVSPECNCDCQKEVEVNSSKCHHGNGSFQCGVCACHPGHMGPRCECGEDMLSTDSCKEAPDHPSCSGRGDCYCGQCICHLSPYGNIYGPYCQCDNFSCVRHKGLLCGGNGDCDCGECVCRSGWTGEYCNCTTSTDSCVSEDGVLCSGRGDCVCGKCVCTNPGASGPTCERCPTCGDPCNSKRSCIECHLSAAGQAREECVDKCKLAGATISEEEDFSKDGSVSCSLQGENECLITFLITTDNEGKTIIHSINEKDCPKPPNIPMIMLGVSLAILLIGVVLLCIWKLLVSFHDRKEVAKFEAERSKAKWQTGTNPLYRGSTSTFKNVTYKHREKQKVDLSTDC", "assay": "[18F]FP-R01-MG-F2 PET/CT target engagement in participants with IPF", "format": "in vivo", "experimental": "The aim of this Example is to assess target engagement of the disclosed compounds to αvβ6 in human participants with IPF using [^18F]FP-R01-MG-F2 PET/computerized tomography (CT) imaging.\nThis Example was conducted as an open-label, single-dose (60 mg, 120 mg, 240 mg or 320 mg) clinical trial evaluating αvβ6 receptor occupancy in the lungs, safety, and pharmacokinetics of Compound #5 in subjects with IPF. To date, 4 participants have completed the study. Each of these 4 participants was undergoing a pre-existing course of therapy using one of the SoC (Standard of Care) compounds, nintedanib. These participants continued their pre-existing nintedanib therapy throughout this study. Knottin tracer uptake kinetics were compared pre- and post-dose of the disclosed compound, as measured by standardized uptake values (SUVs) and parameters estimated from kinetic modeling in regions-of-interest on dynamic [^18F]FP-R01-MG-F2 PET/CT scans. […] Receptor occupancy was estimated from the output of the two-compartment model (VT, the […]) using standard equations and fitting algorithms, and corrections for VND (non-displaceable tracer binding). For example, in FIG. 10, the data points, shown as circles, are modeled by the following formula: […]\nFive subjects with IPF were enrolled: Subject A received a single dose of 60 mg of the disclosed compound followed by a post-dose scan. Subject B received two doses of the disclosed compound separated by two weeks, 120 mg and 240 mg, each followed by a post-dose scan. Subject C received two doses of the disclosed compound separated by two weeks, 240 mg and 320 mg, each followed by a post-dose scan. Subject D received a single dose of 320 mg of the disclosed compound followed by a post-dose scan."}}, "data": [{"smiles": "COCCN(CCCCc1ccc2c(n1)NCCC2)CC[C@H](Nc1ncnc2ccccc12)C(=O)O", "note": "[Compound 5, (S)-4-((2-methoxyethyl)(4-(5,6,7,8-tetrahydro-1,8-naphthyridin-2-yl)butyl)amino)-2-(quinazolin-4-ylamino)butanoic acid]", "values": [{"measurement": "accumulated new collagen (% of lung collagen containing 2H-labeled hydroxyproline)", "setting": "[1]; 1x and 5x dose PO BID 14 days", "result": "dose-dependent reduction"}, {"measurement": "percent total collagen area in second harmonic generation lung images", "setting": "[1]; 1x, 2.5x, 5x dose", "result": "substantial, statistically significant dose-dependent reduction"}, {"measurement": "total pulmonary collagen (µg of hydroxyproline)", "setting": "[1]; 1x, 2.5x, 5x dose PO BID 14 days", "result": "reduction in total pulmonary collagen"}, {"measurement": "lung Col1a1 expression vs DMSO control", "setting": "lung Col1a1 expression [2]", "result": "decreased lung Col1a1 expression substantially"}, {"measurement": "lung Col1a1 expression vs DMSO control", "setting": "lung Col1a1 expression [3]", "result": "substantial, statistically significant"}, {"measurement": "decrease in volume of distribution of the knottin radiotracer in the lungs", "setting": "αvβ6; 60 mg dose", "result": "approximately 50%"}, {"measurement": "decrease in volume of distribution of the knottin radiotracer in the lungs", "setting": "αvβ6; 240 and 320 mg doses", "result": "greater than 95%"}, {"measurement": "%DeltaVt", "setting": "αvβ6; Subject A00, 60 mg single dose", "result": 52.23, "unit": "%"}, {"measurement": "Vs (Vt corrected for non-displaceable binding, VND=0.66)", "setting": "αvβ6; Subject A00, 60 mg single dose", "result": 1.18}, {"measurement": "Vt (post-dose)", "setting": "αvβ6; Subject A00, 60 mg single dose", "result": 1.84}, {"measurement": "%DeltaVt", "setting": "αvβ6; Subject B120, 120 mg", "result": 58.76, "unit": "%"}, {"measurement": "Vs (Vt corrected for non-displaceable binding, VND=0.66)", "setting": "αvβ6; Subject B120, 120 mg", "result": 0.99}, {"measurement": "Vt (post-dose)", "setting": "αvβ6; Subject B120, 120 mg", "result": 1.65}, {"measurement": "%DeltaVt", "setting": "αvβ6; Subject B240, 240 mg", "result": 97.56, "unit": "%"}, {"measurement": "Vs (Vt corrected for non-displaceable binding, VND=0.66)", "setting": "αvβ6; Subject B240, 240 mg", "result": 0.06}, {"measurement": "Vt (post-dose)", "setting": "αvβ6; Subject B240, 240 mg", "result": 0.72}, {"measurement": "%DeltaVt", "setting": "αvβ6; Subject C240, 240 mg", "result": 70.91, "unit": "%"}, {"measurement": "Vs (Vt corrected for non-displaceable binding, VND=0.66)", "setting": "αvβ6; Subject C240, 240 mg", "result": 0.32}, {"measurement": "Vt (post-dose)", "setting": "αvβ6; Subject C240, 240 mg", "result": 0.98}, {"measurement": "%DeltaVt", "setting": "αvβ6; Subject C320, 320 mg", "result": 82.73, "unit": "%"}, {"measurement": "Vs (Vt corrected for non-displaceable binding, VND=0.66)", "setting": "αvβ6; Subject C320, 320 mg", "result": 0.19}, {"measurement": "Vt (post-dose)", "setting": "αvβ6; Subject C320, 320 mg", "result": 0.85}, {"measurement": "%DeltaVt", "setting": "αvβ6; Subject D320, 320 mg", "result": 93.57, "unit": "%"}, {"measurement": "Vs (Vt corrected for non-displaceable binding, VND=0.66)", "setting": "αvβ6; Subject D320, 320 mg", "result": 0.09}, {"measurement": "Vt (post-dose)", "setting": "αvβ6; Subject D320, 320 mg", "result": 0.75}, {"measurement": "αvβ6 receptor occupancy", "setting": "αvβ6; lungs of IPF participants", "result": "about 100%"}, {"measurement": "concentration at which the exposure response saturates", "setting": "αvβ6; measured drug exposure at 4 hours", "result": "about 100 nM"}]}]}
